Reference: patent US12441768B2, “Compositions and methods for treating endometriosis” (EndoMet Biosciences, Inc., priority 2018, dated 2025)
*1 amine or outer side, *2 acyl side, *3 side chain or, on linkers, in order; H or OH if unused. Where a SMILES comes first, the peptide text is derived from it. [ ]: non-standard residue; d: D form. ξ: configuration not given here. X4 = CC[C@@H](C)C(N[*:1])C(=O)[*:2]; ξW = NC(Cc1c[nH]c2ccccc12)C(=O)O; ξL = CC(C)CC(N)C(=O)O; ξC = NC(CS)C(=O)O; βAla = NCCC(=O)O

Molecular target: T1, β-catenin (Homo sapiens, UniProt P35222)
T1 sequence (P35222 1-781): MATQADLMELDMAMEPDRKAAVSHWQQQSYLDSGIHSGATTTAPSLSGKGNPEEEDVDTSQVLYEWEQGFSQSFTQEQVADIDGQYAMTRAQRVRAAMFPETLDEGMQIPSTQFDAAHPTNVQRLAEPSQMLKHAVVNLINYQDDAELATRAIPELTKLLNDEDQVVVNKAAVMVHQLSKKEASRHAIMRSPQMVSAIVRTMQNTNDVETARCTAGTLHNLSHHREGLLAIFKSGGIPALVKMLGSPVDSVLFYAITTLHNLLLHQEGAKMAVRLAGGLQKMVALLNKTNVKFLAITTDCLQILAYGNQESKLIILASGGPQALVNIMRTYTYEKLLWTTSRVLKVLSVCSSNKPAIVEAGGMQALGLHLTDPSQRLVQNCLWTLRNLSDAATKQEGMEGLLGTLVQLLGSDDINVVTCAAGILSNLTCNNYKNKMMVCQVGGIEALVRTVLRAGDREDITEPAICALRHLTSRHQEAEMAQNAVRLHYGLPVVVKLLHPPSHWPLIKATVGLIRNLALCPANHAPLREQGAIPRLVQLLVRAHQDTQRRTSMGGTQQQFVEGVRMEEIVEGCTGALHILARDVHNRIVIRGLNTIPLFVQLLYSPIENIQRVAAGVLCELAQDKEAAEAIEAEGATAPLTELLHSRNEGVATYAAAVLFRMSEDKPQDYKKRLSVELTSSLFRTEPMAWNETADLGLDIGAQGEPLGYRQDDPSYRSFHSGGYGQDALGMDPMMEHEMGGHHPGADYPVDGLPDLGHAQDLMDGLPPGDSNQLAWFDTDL
Assay: KD50 measurement using competitive fluorescence polarization (FP) with labelled TCF4
Type: binding
Settings: fluorescence polarization, β-catenin; for Kd: read-out: β-Cat FP KD
Text: Fluorescence polarization (FP) is another method used to analyze protein-ligand interactions. This methodology measures the change in fluorescence light emitted by a labelled compound free vs. conjugated to another compound in solution. Upon binding of the fluorescent molecule to a complex, polarization increases because of limited rotation of the fluorescent tracer. Competitive FP is often utilized in drug screens as it is formatted for high throughput screens in a plate format. This immunoassay is performed by introducing a non-conjugated drug to compete for binding to the labelled competitor-ligand complex, leading to a reduction in polarization. TCF4 protein is utilized for the competitive assay as (1) this protein influences the full activation of the Wnt pathway and (2) shares homology with the β-catenin inhibitors. Exemplary methodology is described in Example 13. Data were analyzed and plotted in Microsoft Excel (Microsoft, Redmond, WA).
5 nM of labelled TCF4 protein was added to solution of 100 nM of β-catenin and incubated at room temperature in 96-well plates (Greiner 96 Flat transparent plates, Millipore Sigma, Carlsbad CA). Varying concentrations of β-catenin inhibitor candidate (SEQ ID NO: 404) were then added in a series of serial dilutions from 10 nM to 30 uM of inhibitor in different wells of the plate. The fluorescence polarization was read by Infinite M1000 (Tecan, Baldwin Park CA) at excitation wavelength of 470 nm and measured at emission wavelength of 520 nm. […] The experiments were performed three times and data were analyzed and plotted in Microsoft Excel (Microsoft, Redmond, WA).

| Structure (SMILES) | Kd [µM] | β-Cat FP Hill slope |
| --- | --- | --- |
| CC[C@H](C)[C@@H]1NC(=O)[C@H](CC(C)C)NC(=O)[C@H](Cc2ccccc2)NC(=O)[C@H](Cc2c[nH]c3ccccc23)NC(=O)[C@@H](N)CCCCNC(=O)CCCNC(=O)C[C@@H](C(=O)O)NC(=O)[C@H](Cc2c[nH]c3ccccc23)NC(=O)[C@H](C)NC(=O)[C@H](CS)NC1=O [compound 247] (HELM PEPTIDE1{K.W.F.L.I.C.A.W.[O=C(O)[C@H](CC(=O)[*:2])N[*:1]].[O=C(CCCN[*:1])[*:2]]}$PEPTIDE1,PEPTIDE1,1:R3-10:R2$$$V2.0) | < 0.4 | 2.34 |
| CC[C@H](C)[C@H](NC(=O)[C@H](CC(C)C)NC(=O)[C@H](Cc1ccccc1)NC(=O)[C@H](Cc1c[nH]c2ccccc12)NC(=O)[C@@H](N)CCSC)C(=O)N[C@@H](C)C(=O)N[C@@H](Cc1ccccc1)C(=O)N[C@@H](Cc1c[nH]c2ccccc12)C(=O)NCC(=O)O [compound 10] (H-MWFLIAFWG-OH) | 1 to 10 | 0.73 |
| CC[C@H](C)[C@H](NC(=O)[C@H](CC(C)C)NC(=O)[C@@H](NC(=O)[C@H](Cc1c[nH]c2ccccc12)NC(=O)[C@H](CCSC)NC(C)=O)[C@@H](C)CC)C(=O)N[C@@H](CO)C(=O)N[C@@H](Cc1ccccc1)C(=O)N[C@@H](Cc1c[nH]c2ccccc12)C(=O)NCCCC(=O)O [compound 240] (HELM PEPTIDE1{[ac].M.W.I.L.I.S.F.W.[O=C(O)CCCN[*:1]]}$$$$V2.0) | < 0.4 | 1.44 |
| CC[C@H](C)[C@@H]1NC(=O)[C@H](CC(C)C)NC(=O)[C@H](Cc2ccccc2)NC(=O)[C@H](Cc2c[nH]c3ccccc23)NC(=O)[C@@H](N)CC(=O)NCCCC[C@@H](C(=O)O)NC(=O)[C@H](Cc2c[nH]c3ccccc23)NC(=O)[C@H](C)NC(=O)[C@H](CS)NC1=O [compound 233] (HELM PEPTIDE1{D.W.F.L.I.C.A.W.K}$PEPTIDE1,PEPTIDE1,1:R3-9:R3$$$V2.0) | < 0.4 | 0.74 |
| CC[C@H](C)[C@@H]1NC(=O)[C@H](CC(C)C)NC(=O)[C@@H](N)CCCCNC(=O)C[C@@H](C(=O)O)NC(=O)[C@H](Cc2c[nH]c3ccccc23)NC(=O)[C@H](Cc2ccccc2)NC(=O)[C@H](C)NC1=O [compound 251] (HELM PEPTIDE1{K.L.I.A.F.W.D}$PEPTIDE1,PEPTIDE1,1:R3-7:R3$$$V2.0) | > 30 | – |
| CC[C@H](C)[C@@H]1NC(=O)[C@@H](NC(=O)[C@H](CCC(N)=O)NC(=O)[C@H](C)N(C)C(=O)[C@@H](N)Cc2c[nH]c3ccccc23)CCCCNC(=O)CC[C@@H](C(=O)N[C@@H](Cc2c[nH]cn2)C(=O)N[C@H](C(=O)N[C@@H](CCC(N)=O)C(=O)N[C@@H](CCCNC(=N)N)C(=O)N[C@H](C(=O)N[C@@H](Cc2c[nH]c3ccccc23)C(=O)NCC(N)=O)C(C)C)C(C)C)NC(=O)[C@H](CC(=O)O)NC(=O)[C@H](CC2CCCCC2)NC1=O [compound 406] (HELM PEPTIDE1{W.[meA].Q.K.I.[Cha].D.E.H.V.Q.R.V.W.G.[am]}$PEPTIDE1,PEPTIDE1,4:R3-8:R3$$$V2.0) | > 30 | – |
| CC[C@@H](C)C(NC(=O)C(CC(C)C)NC(=O)[C@H](Cc1ccccc1)NC(=O)C(Cc1c[nH]c2ccccc12)NC(=O)[C@H](CCCCN)NC(C)=O)C(=O)NC(CS)C(=O)N[C@@H](C)C(=O)NC(Cc1c[nH]c2ccccc12)C(=O)NCCC(=O)O (stereo partly drawn) [compound 235] (Ac-K[ξW]F[ξL][X4][ξC]A[ξW][βAla]-OH) | > 30 | – |

The next lines start with the values.

| Kd [µM] | β-Cat FP Hill slope | Structure (SMILES) |
| --- | --- | --- |
| < 0.4 | – | CCCCCCCCCCCC(=O)N[C@@H](Cc1c[nH]c2ccccc12)C(=O)N(C)[C@@H](C)C(=O)N[C@@H](CCC(N)=O)C(=O)N[C@@H](CO)C(=O)N[C@H](C(=O)N[C@@H](CC(C)C)C(=O)N[C@@H](CC(=O)O)C(=O)N[C@H]1CCC(=O)NCCCC[C@@H](C(=O)N[C@H](C(=O)N[C@@H](Cc2c[nH]c3ccccc23)C(=O)NCC(N)=O)C(C)C)NC(=O)[C@H](CCC(N)=O)NC(=O)[C@H](C2CCCCC2)NC(=O)[C@H](Cc2c[nH]cn2)NC1=O)[C@@H](C)CC [compound 471] (HELM PEPTIDE1{[CCCCCCCCCCCC(=O)[*:2]].W.[meA].Q.S.I.L.D.E.H.[O=C([C@@H](N[*:1])C1CCCCC1)[*:2]].Q.K.V.W.G.[am]}$PEPTIDE1,PEPTIDE1,9:R3-13:R3$$$V2.0) |
| < 0.4 | 0.7 | CC[C@H](C)[C@@H]1NC(=O)[C@@H](NC(=O)[C@H](CCC(N)=O)NC(=O)[C@H](C)N(C)C(=O)[C@H](Cc2c[nH]c3ccccc23)NC(C)=O)CCCCNC(=O)CC[C@@H](C(=O)N[C@@H](Cc2c[nH]cn2)C(=O)N[C@H](C(=O)NC(C)(C)C(=O)N[C@@H](CCCNC(=N)N)C(=O)N[C@H](C(=O)N[C@@H](Cc2c[nH]c3ccccc23)C(=O)NCC(N)=O)C(C)C)C2CCCCC2)NC(=O)[C@H](CC(=O)O)NC(=O)[C@H](CC(C)C)NC1=O [compound 414] (HELM PEPTIDE1{[ac].W.[meA].Q.K.I.L.D.E.H.[O=C([C@@H](N[*:1])C1CCCCC1)[*:2]].[Aib].R.V.W.G.[am]}$PEPTIDE1,PEPTIDE1,5:R3-9:R3$$$V2.0) |
| < 0.4 | 0.7 | CC[C@H](C)[C@@H]1NC(=O)[C@@H](NC(=O)[C@H](CCC(N)=O)NC(=O)[C@H](C)N(C)C(=O)[C@H](Cc2c[nH]c3ccccc23)NC(C)=O)CCCCNC(=O)CC[C@@H](C(=O)N[C@@H](Cc2c[nH]cn2)C(=O)N[C@H](C(=O)N[C@@H](CO)C(=O)N[C@@H](CCCNC(=N)N)C(=O)N[C@H](C(=O)N[C@@H](Cc2c[nH]c3ccccc23)C(=O)NCC(N)=O)C(C)C)C2CCCCC2)NC(=O)[C@H](CC(=O)O)NC(=O)[C@H](CC(C)C)NC1=O [compound 416] (HELM PEPTIDE1{[ac].W.[meA].Q.K.I.L.D.E.H.[O=C([C@@H](N[*:1])C1CCCCC1)[*:2]].S.R.V.W.G.[am]}$PEPTIDE1,PEPTIDE1,5:R3-9:R3$$$V2.0) |
| 0.4 to 1 | 0.7 | CC(C)C[C@@H]1NC(=O)[C@H](C2CCCCC2)NC(=O)[C@@H](NC(=O)[C@H](CCC(N)=O)NC(=O)[C@H](C)N(C)C(=O)[C@@H](N)Cc2c[nH]c3ccccc23)CCCCNC(=O)CC[C@@H](C(=O)N[C@@H](Cc2c[nH]cn2)C(=O)N[C@H](C(=O)N[C@@H](CCC(N)=O)C(=O)N[C@@H](CCCNC(=N)N)C(=O)N[C@H](C(=O)N[C@@H](Cc2c[nH]c3ccccc23)C(=O)NCC(N)=O)C(C)C)C(C)C)NC(=O)[C@H](CC(=O)O)NC1=O [compound 420] (HELM PEPTIDE1{W.[meA].Q.K.[O=C([C@@H](N[*:1])C1CCCCC1)[*:2]].L.D.E.H.V.Q.R.V.W.G.[am]}$PEPTIDE1,PEPTIDE1,4:R3-8:R3$$$V2.0) |
| 0.4 to 1 | 0.79 | CC[C@H](C)[C@@H]1NC(=O)[C@H](CO)NC(=O)[C@@H](NC(=O)[C@H](C)N(C)C(=O)[C@H](Cc2c[nH]c3ccccc23)NC(C)=O)CCC(=O)NCCCC[C@@H](C(=O)N[C@@H](CCC(=O)O)C(=O)N[C@@H](Cc2c[nH]cn2)C(=O)N[C@H](C(=O)N[C@@H](CCC(N)=O)C(=O)N[C@@H](CCCNC(=N)N)C(=O)N[C@H](C(=O)N[C@@H](Cc2c[nH]c3ccccc23)C(=O)NCC(N)=O)C(C)C)C(C)C)NC(=O)[C@H](CC(C)C)NC1=O [compound 450] (HELM PEPTIDE1{[ac].W.[meA].E.S.I.L.K.E.H.V.Q.R.V.W.G.[am]}$PEPTIDE1,PEPTIDE1,4:R3-8:R3$$$V2.0) |
| < 0.4 | – | CCCCCCCCCCCC(=O)N[C@@H](Cc1c[nH]c2ccccc12)C(=O)N(C)[C@@H](C)C(=O)N[C@@H](CCC(N)=O)C(=O)N[C@@H](CO)C(=O)N[C@H](C(=O)N[C@@H](CC(C)C)C(=O)N[C@@H](CC(=O)O)C(=O)N[C@H]1CCCCNC(=O)C[C@@H](C(=O)N[C@H](C(=O)N[C@@H](Cc2c[nH]c3ccccc23)C(N)=O)C(C)C)NC(=O)[C@H](CCC(N)=O)NC(=O)[C@H](C2CCCCC2)NC(=O)[C@H](Cc2c[nH]cn2)NC1=O)[C@@H](C)CC [compound 461] (HELM PEPTIDE1{[CCCCCCCCCCCC(=O)[*:2]].W.[meA].Q.S.I.L.D.K.H.[O=C([C@@H](N[*:1])C1CCCCC1)[*:2]].Q.D.V.W.[am]}$PEPTIDE1,PEPTIDE1,9:R3-13:R3$$$V2.0) |
